Measured values as given in ChEMBL document CHEMBL4130360, “Synthesis of 2-imino and 2-hydrazono thiazolo[4,5-d]pyrimidines as corticotropin releasing factor (CRF) antagonists” (Eur J Med Chem, 2017).

These compounds were tested against T1, Corticotropin-releasing factor receptor 1 (Homo sapiens, UniProt P34998) (assay: Displacement of [125I]-Tyr0-sauvagine from human CRFR1 expressed in HEK293 cell membrane homogenates after 120 mins by gamma counting method).
T1 sequence (P34998 whole entry): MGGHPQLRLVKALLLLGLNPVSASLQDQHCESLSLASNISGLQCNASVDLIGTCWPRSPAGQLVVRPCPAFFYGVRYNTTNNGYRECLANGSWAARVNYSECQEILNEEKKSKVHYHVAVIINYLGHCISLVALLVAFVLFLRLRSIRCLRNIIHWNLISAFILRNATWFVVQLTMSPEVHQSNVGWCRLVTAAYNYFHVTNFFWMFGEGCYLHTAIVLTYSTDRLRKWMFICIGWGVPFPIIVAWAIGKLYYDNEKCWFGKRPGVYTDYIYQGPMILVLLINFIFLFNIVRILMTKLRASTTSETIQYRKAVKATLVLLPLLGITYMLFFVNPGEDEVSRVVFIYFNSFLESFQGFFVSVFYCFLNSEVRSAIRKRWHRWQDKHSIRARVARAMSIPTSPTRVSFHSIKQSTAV
Type: cell membranes

Row | Structure (SMILES) | IC50 [nM]
1 | CCCCN(CC)c1nc(C)nc2c1sc(=N)n2-c1c(C)cc(C)cc1C | 170
2 | CCN(CC)c1nc(C)nc2c1s/c(=N/N)n2-c1c(C)cc(C)cc1C | 447
3 | CCN(CC)c1nc(C)nc2c1sc(=N)n2-c1c(C)cc(C)cc1C | 891
